One assay has as its target T1, Estrogen receptor (Homo sapiens, UniProt P03372).
T1 sequence (P03372 whole entry): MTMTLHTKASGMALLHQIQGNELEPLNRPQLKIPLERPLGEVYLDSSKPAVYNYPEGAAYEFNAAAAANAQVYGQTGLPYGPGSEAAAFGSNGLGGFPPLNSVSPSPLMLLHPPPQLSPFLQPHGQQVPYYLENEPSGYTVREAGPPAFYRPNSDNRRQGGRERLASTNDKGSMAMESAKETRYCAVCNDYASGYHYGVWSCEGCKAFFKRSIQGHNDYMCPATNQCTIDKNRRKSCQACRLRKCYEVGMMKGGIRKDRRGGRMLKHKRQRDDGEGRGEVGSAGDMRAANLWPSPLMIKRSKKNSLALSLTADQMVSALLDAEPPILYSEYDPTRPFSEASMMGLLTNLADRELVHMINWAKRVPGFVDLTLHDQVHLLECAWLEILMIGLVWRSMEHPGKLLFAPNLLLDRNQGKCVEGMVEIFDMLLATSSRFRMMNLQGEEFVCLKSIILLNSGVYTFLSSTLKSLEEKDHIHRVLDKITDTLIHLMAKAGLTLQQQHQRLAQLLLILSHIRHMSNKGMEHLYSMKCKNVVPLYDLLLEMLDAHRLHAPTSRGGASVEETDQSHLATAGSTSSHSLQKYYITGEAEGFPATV
Kind of assay: Binding affinity for estrogen receptor alpha.

Another assay concerns the target Estrogen receptor beta (Homo sapiens, UniProt Q92731). Kind of assay: Binding affinity for estrogen receptor beta.

The structures appear in SMILES notation. pIC50: −log10 of the molar value.

Results on five compounds are retold here after ChEMBL document CHEMBL1147609, “Comparison of 2-phenylspiroindenes and 2-phenylspiroindenediones as estrogen receptor ligands--modeling and binding data don't agree!” (Bioorg Med Chem Lett, 2004).

Chain of Estrogen receptor beta (Q92731 whole entry): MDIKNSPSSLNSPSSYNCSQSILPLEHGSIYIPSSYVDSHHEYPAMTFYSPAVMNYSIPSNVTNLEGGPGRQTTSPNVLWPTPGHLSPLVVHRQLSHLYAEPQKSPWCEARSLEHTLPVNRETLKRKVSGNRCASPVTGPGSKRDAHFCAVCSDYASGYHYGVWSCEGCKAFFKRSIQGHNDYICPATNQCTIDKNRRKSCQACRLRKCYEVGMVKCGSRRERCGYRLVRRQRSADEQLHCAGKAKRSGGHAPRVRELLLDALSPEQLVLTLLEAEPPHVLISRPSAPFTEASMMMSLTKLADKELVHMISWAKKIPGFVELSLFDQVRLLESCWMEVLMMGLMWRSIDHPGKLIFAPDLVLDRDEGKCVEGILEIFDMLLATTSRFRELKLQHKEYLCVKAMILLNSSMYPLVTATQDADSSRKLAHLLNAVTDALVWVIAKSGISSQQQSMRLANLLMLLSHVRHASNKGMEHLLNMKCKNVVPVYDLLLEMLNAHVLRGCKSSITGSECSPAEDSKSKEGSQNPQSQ

On to `Oc1cccc(C2=Cc3cc(O)ccc3C23Cc2ccccc2C3)c1`, for which the pIC50 at Estrogen receptor is 7.46; at Estrogen receptor beta, 7.55.

Take `O=C1c2ccccc2C(=O)C12C(c1ccc(O)cc1)=Cc1cc(O)ccc12`: the figures for the negative logarithm of the IC50 (pIC50) on Estrogen receptor and at Estrogen receptor beta were 7.04 and 6.99, respectively.

Take `O=C1c2ccccc2C(=O)C12C(c1cccc(O)c1)=Cc1cc(O)ccc12`: the negative-log IC50 (pIC50) on Estrogen receptor was 6.44; on Estrogen receptor beta it was 6.48.

As for `Oc1ccc(C2=Cc3cc(O)ccc3C23Cc2ccc(OCCN4CCCCC4)cc2C3)cc1` (centres undefined), the pIC50 at Estrogen receptor beta was 8.74.

Consider `O=C1c2ccc(OCCN3CCCCC3)cc2C(=O)C12C(c1ccc(O)cc1)=Cc1cc(O)ccc12` (centres undefined), for which the negative logarithm of the IC50 (pIC50) at Estrogen receptor is 6.76; on Estrogen receptor beta it was 6.65.
